Results from PMC4822341 (Cell Discovery, 2015).

Biological target: T1, MR (Homo sapiens, UniProt P08235)
T1 construct: expressed in transfected cells; host or cells: AD293
T1 sequence (P08235 1-984): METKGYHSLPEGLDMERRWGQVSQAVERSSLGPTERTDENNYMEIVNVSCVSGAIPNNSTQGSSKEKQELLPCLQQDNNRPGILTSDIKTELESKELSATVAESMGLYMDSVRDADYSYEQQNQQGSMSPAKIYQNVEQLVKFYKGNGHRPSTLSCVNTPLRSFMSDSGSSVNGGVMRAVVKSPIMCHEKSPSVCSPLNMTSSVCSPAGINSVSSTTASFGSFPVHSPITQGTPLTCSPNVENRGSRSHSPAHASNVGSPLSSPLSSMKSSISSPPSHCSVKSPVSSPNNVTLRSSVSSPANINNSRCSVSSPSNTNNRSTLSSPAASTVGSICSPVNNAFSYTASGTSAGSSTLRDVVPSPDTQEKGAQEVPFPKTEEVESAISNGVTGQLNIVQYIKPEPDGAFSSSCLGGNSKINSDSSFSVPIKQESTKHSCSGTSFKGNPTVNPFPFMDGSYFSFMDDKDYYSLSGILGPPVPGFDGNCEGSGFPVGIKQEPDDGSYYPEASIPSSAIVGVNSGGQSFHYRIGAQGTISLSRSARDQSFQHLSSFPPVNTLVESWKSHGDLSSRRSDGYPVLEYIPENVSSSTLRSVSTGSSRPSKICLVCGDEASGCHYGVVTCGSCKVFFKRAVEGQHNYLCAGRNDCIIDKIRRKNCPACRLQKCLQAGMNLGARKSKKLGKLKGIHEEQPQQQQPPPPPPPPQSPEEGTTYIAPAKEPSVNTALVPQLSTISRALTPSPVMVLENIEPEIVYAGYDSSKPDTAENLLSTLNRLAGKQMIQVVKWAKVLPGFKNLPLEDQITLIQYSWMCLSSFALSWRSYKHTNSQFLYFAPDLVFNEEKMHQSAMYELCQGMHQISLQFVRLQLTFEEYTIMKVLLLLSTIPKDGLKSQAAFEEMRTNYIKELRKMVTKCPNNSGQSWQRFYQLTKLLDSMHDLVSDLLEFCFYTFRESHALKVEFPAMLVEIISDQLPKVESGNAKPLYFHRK
Assay: MR reporter assay (off-target activity)
Assay type: cell-based
Conditions: steroid 1 μM; percent of 1 μM corticosterone
Protocol: Similar to previous reports, for induction 100 ng pHHLuc (MMTV-Luc) plasmid, 0.1 ng pRShGR together with 5 ng phRGtkRenilla were transfected by X-tremeGENE 9 (Roche) into AD293 cells per well in 24-well plate. For transrepression, 10 ng AP-1-Luc or 10ng pNF-κB-luc, 100 ng pRShGR and 5 ng phRGtkRenilla were transfected into AD293 cells per well. We used the same transfection protocol for the MR and PR assays, except of the use of 0.1 ng MR or PR plasmid to substitute GR. One day after transfection, for induction, cells were directly treated by steroids for 16 h; for repression, cells were treated with either PMA at 0.6 ng ml^–1 (for AP-1 reporter) or TNFα at 2 ng ml^–1 (for NF-κB reporter), together with various steroids. Cells were collected by addition of 1× Passive Lysis Buffer (Promega, Madison, WI, USA), and luciferase activity was assayed by the Dual-Glo Luciferase system (Promega). Data were plotted as firefly luciferase activity normalized to Renilla luciferase activity in Relative Luciferase Units.

For `CON(C)C(=O)C1(OC(=O)c2ccco2)C(C)CC2C3CC(F)C4=Cc5c(cnn5-c5ccccc5)CC4(C)C3(F)C(O)CC21C` (stereo not shown) [VSGC12], the MR activity was “higher MR activity than VSG22 and FP, but a lower activity than MF and a similar activity (difference not statistically significant) as FF”.
